# In ChEMBL document CHEMBL1201862, “PubChem BioAssay data set” (2004):
#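 Exposure lasted 48 hours, with cells grown in 96-well plates and compounds tested at five concentrations. GI50 marks 50% less growth.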 Activity calls are given as the source filed them. Cut-off read from the data, not from the text of the source: active = GI50 up to about 1.1 µM and inactive = higher.
# Columns and labels:
# Assay in all cases: DTP human tumour cell line panel, 48 h
# OVCAR-5 = tested on: OVCAR-5
# Hs-578T = tested on: Hs-578T
# LOX IMVI = tested on: LOX IMVI
# K562 = tested on: K562
# COLO 205 = tested on: COLO 205
# HOP-92 = tested on: HOP-92
# OVCAR-4 = tested on: OVCAR-4
# NCI-H23 = tested on: NCI-H23
# ACHN = tested on: ACHN
# BT-549 = tested on: BT-549
# CCRF-CEM = tested on: CCRF-CEM
# HL-60 = tested on: HL-60
# NCI/ADR-RES = tested on: NCI/ADR-RES
# IGROV-1 = tested on: IGROV-1
# MOLT-4 = tested on: MOLT-4
# SF-295 = tested on: SF-295
# Malme-3M = tested on: Malme-3M
# HCC 2998 = tested on: HCC 2998
# MDA-N = tested on: MDA-N
# SR = tested on: SR
SMILES,GI50 (OVCAR-5),GI50 (Hs-578T),GI50 (LOX IMVI),GI50 (K562),GI50 (COLO 205),GI50 (HOP-92),GI50 (OVCAR-4),GI50 (NCI-H23),GI50 (ACHN),GI50 (BT-549),GI50 (CCRF-CEM),GI50 (HL-60),GI50 (NCI/ADR-RES),GI50 (IGROV-1),GI50 (MOLT-4),GI50 (SF-295),GI50 (Malme-3M),GI50 (HCC 2998),GI50 (MDA-N),GI50 (SR)
COc1ccc(/C=C2\N=C(SC)N(C)C2=O)cc1,95.7 µM (inactive),22.8 µM (inactive),75.2 µM (inactive),50.9 µM (inactive),94.6 µM (inactive),> 100 µM (inactive),39.6 µM (inactive),> 100 µM (inactive),38.8 µM (inactive),> 100 µM (inactive),> 100 µM (inactive),27.5 µM (inactive),86.9 µM (inactive),48 µM (inactive),–,–,–,–,–,–
COC1=CC23CCCN2CCc2cc4c(cc2C3C1O)OCO4 (stereo not given),> 100 µM (inactive),82 µM (inactive),37.1 µM (inactive),> 10 µM (inactive),24.5 µM (inactive),> 100 µM (inactive),44.6 µM (inactive),62.8 µM (inactive),22.3 µM (inactive),> 100 µM (inactive),41.2 µM (inactive),25.8 µM (inactive),> 100 µM (inactive),28.8 µM (inactive),66.7 µM (inactive),36.1 µM (inactive),43 µM (inactive),70.3 µM (inactive),–,–
N#Cc1nc(-c2ccsc2)oc1N,> 100 µM (inactive),> 100 µM (inactive),> 100 µM (inactive),> 100 µM (inactive),–,> 100 µM (inactive),–,–,> 100 µM (inactive),–,> 100 µM (inactive),> 100 µM (inactive),–,71.8 µM (inactive),> 100 µM (inactive),–,–,–,> 100 µM (inactive),> 100 µM (inactive)
C#C[C@@]1(O)CCCC2=CC3(CC[C@]21C)SCCS3,> 100 µM (inactive),> 100 µM (inactive),> 100 µM (inactive),> 100 µM (inactive),> 100 µM (inactive),> 100 µM (inactive),> 100 µM (inactive),> 100 µM (inactive),> 100 µM (inactive),–,–,45.6 µM (inactive),> 100 µM (inactive),> 100 µM (inactive),> 100 µM (inactive),> 100 µM (inactive),> 100 µM (inactive),> 100 µM (inactive),> 100 µM (inactive),> 100 µM (inactive)
O=C(Nc1ccccc1[N+](=O)[O-])/C(=N/Nc1cccc(Cl)c1)c1c(O)c2ccccc2oc1=O,> 100 µM (inactive),–,> 100 µM (inactive),25.2 µM (inactive),17.7 µM (inactive),23.6 µM (inactive),> 100 µM (inactive),24.9 µM (inactive),> 100 µM (inactive),–,14.4 µM (inactive),> 10 µM (inactive),–,89.3 µM (inactive),48 µM (inactive),> 100 µM (inactive),97.9 µM (inactive),84.1 µM (inactive),–,0.0357 µM (active)
COC(=O)OCC1OC(N2C(=O)NC(=O)C(I)C2N=[N+]=[N-])CC1OC(=O)OC (stereo not given),> 100 µM (inactive),–,> 100 µM (inactive),> 100 µM (inactive),> 100 µM (inactive),> 100 µM (inactive),> 100 µM (inactive),> 100 µM (inactive),> 100 µM (inactive),–,> 100 µM (inactive),> 100 µM (inactive),–,> 100 µM (inactive),> 100 µM (inactive),> 100 µM (inactive),> 100 µM (inactive),> 100 µM (inactive),–,> 100 µM (inactive)
O=C1CSc2ccncc2N1,> 100 µM (inactive),–,> 100 µM (inactive),> 100 µM (inactive),> 100 µM (inactive),–,> 100 µM (inactive),> 100 µM (inactive),> 100 µM (inactive),–,> 100 µM (inactive),> 100 µM (inactive),–,> 100 µM (inactive),> 100 µM (inactive),> 100 µM (inactive),> 100 µM (inactive),> 100 µM (inactive),–,> 100 µM (inactive)
COc1ccc2c(c1)C(N)CC2=O (stereo not given),> 100 µM (inactive),> 100 µM (inactive),–,> 100 µM (inactive),> 100 µM (inactive),> 100 µM (inactive),> 100 µM (inactive),> 100 µM (inactive),> 100 µM (inactive),> 100 µM (inactive),> 100 µM (inactive),–,> 100 µM (inactive),> 100 µM (inactive),> 100 µM (inactive),> 100 µM (inactive),–,> 100 µM (inactive),–,–
COC1CC(OC)C(O)C(CO)O1 (stereo not given),> 100 µM (inactive),–,> 100 µM (inactive),> 100 µM (inactive),–,–,> 100 µM (inactive),> 100 µM (inactive),> 100 µM (inactive),–,> 100 µM (inactive),> 100 µM (inactive),–,> 100 µM (inactive),> 100 µM (inactive),> 100 µM (inactive),> 100 µM (inactive),> 100 µM (inactive),–,> 100 µM (inactive)
COC(=O)C(=O)C(C(=O)C=C(C)C)C(=O)C(=O)Nc1ccc(C)cc1C (stereo not given),> 100 µM (inactive),–,> 100 µM (inactive),> 100 µM (inactive),> 100 µM (inactive),–,> 100 µM (inactive),> 100 µM (inactive),> 100 µM (inactive),–,> 100 µM (inactive),> 100 µM (inactive),–,> 100 µM (inactive),> 100 µM (inactive),> 100 µM (inactive),> 100 µM (inactive),> 100 µM (inactive),–,> 100 µM (inactive)
CC(/C=C/C(=O)c1sc(C(N)=S)nc1C)=C\c1ccccc1,> 100 µM (inactive),–,18.2 µM (inactive),> 100 µM (inactive),54 µM (inactive),> 100 µM (inactive),> 100 µM (inactive),> 100 µM (inactive),81.8 µM (inactive),–,58.2 µM (inactive),> 100 µM (inactive),–,> 100 µM (inactive),> 100 µM (inactive),> 100 µM (inactive),> 100 µM (inactive),> 100 µM (inactive),–,31.9 µM (inactive)
COC(=O)/C=C(\C(=O)OC)c1c2c3c(cc(OC)c(OC)c3c3ccccc13)CCN2C,> 100 µM (inactive),–,49.5 µM (inactive),26.2 µM (inactive),14.7 µM (inactive),44.9 µM (inactive),–,42.2 µM (inactive),40.6 µM (inactive),–,24 µM (inactive),17.9 µM (inactive),–,26.8 µM (inactive),24.1 µM (inactive),78.9 µM (inactive),33.7 µM (inactive),33.7 µM (inactive),–,26.1 µM (inactive)
CC1CC[P+](c2ccccc2)(c2ccccc2)CC1,> 100 µM (inactive),–,51.3 µM (inactive),91.6 µM (inactive),18.7 µM (inactive),–,–,72.6 µM (inactive),> 100 µM (inactive),–,67.6 µM (inactive),24.5 µM (inactive),–,98.2 µM (inactive),> 100 µM (inactive),> 100 µM (inactive),> 100 µM (inactive),20.8 µM (inactive),–,55.5 µM (inactive)
COc1cc2c(oc(=O)c3c4oc([Si](C)(C)C)cc4cc(OC)c23)c2cccc(O)c12,> 100 µM (inactive),–,> 100 µM (inactive),> 100 µM (inactive),> 100 µM (inactive),> 100 µM (inactive),> 100 µM (inactive),> 100 µM (inactive),> 100 µM (inactive),–,> 100 µM (inactive),> 100 µM (inactive),–,> 100 µM (inactive),> 100 µM (inactive),> 100 µM (inactive),> 100 µM (inactive),> 100 µM (inactive),–,> 100 µM (inactive)
N#Cc1nc(CN2C(=O)c3ccccc3C2=O)oc1N,> 100 µM (inactive),> 100 µM (inactive),–,> 100 µM (inactive),> 100 µM (inactive),> 100 µM (inactive),> 100 µM (inactive),–,> 100 µM (inactive),–,> 100 µM (inactive),–,> 100 µM (inactive),> 100 µM (inactive),> 100 µM (inactive),> 100 µM (inactive),> 100 µM (inactive),> 100 µM (inactive),> 100 µM (inactive),> 100 µM (inactive)
COc1cc2[nH]c3c(c2cc1OC)CCN[C@]31CC[C@]2(CC3c4c(cc(OC)c(O)c42)CCN3C)C[C@H]1OC (stereo not given in full),69.3 µM (inactive),–,24.3 µM (inactive),11.6 µM (inactive),13.7 µM (inactive),25.8 µM (inactive),23.8 µM (inactive),65.5 µM (inactive),24.8 µM (inactive),–,10.8 µM (inactive),11.6 µM (inactive),–,22.5 µM (inactive),12.9 µM (inactive),20.5 µM (inactive),21 µM (inactive),15.2 µM (inactive),–,15.8 µM (inactive)
N=C(N)NCCCC(NC(=O)c1cccc2c(=O)c3ccccc3[nH]c12)C(=O)O (stereo not given),> 100 µM (inactive),> 100 µM (inactive),> 100 µM (inactive),> 100 µM (inactive),> 100 µM (inactive),58.9 µM (inactive),> 100 µM (inactive),> 100 µM (inactive),> 100 µM (inactive),–,> 100 µM (inactive),> 100 µM (inactive),> 100 µM (inactive),> 100 µM (inactive),> 100 µM (inactive),> 100 µM (inactive),> 100 µM (inactive),–,> 100 µM (inactive),> 100 µM (inactive)
CC(C)CC12CC3CCC(CNC1=O)C32C (stereo not given),96.8 µM (inactive),–,> 100 µM (inactive),43.5 µM (inactive),> 100 µM (inactive),> 100 µM (inactive),> 100 µM (inactive),> 100 µM (inactive),> 100 µM (inactive),–,35.5 µM (inactive),31.9 µM (inactive),–,> 100 µM (inactive),40.5 µM (inactive),> 100 µM (inactive),> 100 µM (inactive),> 100 µM (inactive),–,63.7 µM (inactive)
